In patent US20070082883A1, “HIV protease inhibitors” (THE BOARD OF TRUSTEES OF THE UNIVERSITY OF ILLINOIS, priority 2002, published 2007):

biological target: T1, HIV-1 protease (Human immunodeficiency virus type 1 group M subtype B, UniProt P04585); test: HIV-1 Protease Inhibition Assay; type: biochemical; settings: fluorogenic substrate assay
T1 construct: made in house; host or cells: E. coli BL21 (dE3)pLysS, pET30a vector
From the text: Assays of the dose-response effect of inhibitor compounds can be described as a curve expressing a degree of inhibition as a function of concentration. The curve theoretically passes through a point at which the concentration is sufficient to reduce activity of the HIV protease enzyme to a level that is 50% that of the difference between minimal and maximal enzyme activity in the assay.
HIV-1 Protease Inhibition Assay
The HIV-1 protease gene was subcloned into the pET30a vector (Novagen) and then transformed into BL21 (dE3)pLysS cells for protein expression. Protein expression and purification were followed according to Tang's procedure (Hong et al., Biochemistry, 1996, 35, 10627-10633). […] The inclusion body containing some bacterial proteins was thoroughly washed by using TRITON X-100, solubilized in […] and passed through the Q-sepharose column to remove the bacterial proteins which interfered with subsequent refolding steps. HIV-1 protease was refolded from the urea to an active form by dialysis. As a final step, gel filtration chromatography was used to remove impurities after refolding. Activities of purified HIV-1 protease were examined using a fluorogenic substrate, 2-aminobenzoyl-Thr-Ile-Nle-Phe(pNO2)-Gln-Arg-NH2 (Novabiochem). […] In the condition of So<<Km, v=Eo(kcat/Km)So, where Eo is the total enzyme concentration, and So is the substrate concentrate. […] Assays are carried out as described by Toth and Marshall (Toth et al., Int. J. Pept. Protein Res., 1990, 36, 544-50).

Structure (SMILES) | IC50 | Ki
CC(C)CN(C[C@@H](O)[C@H](Cc1ccccc1)NC(=O)OC(C)(C)C)S(=O)(=O)c1cncc([N+](=O)[O-])c1 [Compound 163] | 115 nM | 36 nM
CC(C)CN(C[C@@H](O)[C@H](Cc1ccccc1)NC(=O)OC(C)(C)C)S(=O)(=O)c1cncc(N)c1 [Compound 164] | 33 nM | 10 nM
CC(C)CN(C[C@@H](O)[C@H](Cc1ccccc1)NC(=O)OC1CO[C@H]2OCCC12)S(=O)(=O)c1cncc([N+](=O)[O-])c1 (stereo partly shown) [Compound 165] | 3.5 nM | 1 nM
CC(C)CN(C[C@@H](O)[C@H](Cc1ccccc1)NC(=O)OC1CO[C@H]2OCCC12)S(=O)(=O)c1cncc(N)c1 (stereo partly shown) [Compound 166] | 0.91 nM | 0.28 nM
CC(C)CN(C[C@@H](O)[C@H](Cc1ccccc1)NC(=O)OC1CC2CCO[C@@H]2C1)S(=O)(=O)c1cncc([N+](=O)[O-])c1 (stereo partly shown) [Compound 167] | 4.5 nM | 1.4 nM
CC(C)CN(C[C@@H](O)[C@H](Cc1ccccc1)NC(=O)OC1CC2CCO[C@@H]2C1)S(=O)(=O)c1cncc(N)c1 (stereo partly shown) [Compound 168] | 2.5 nM | 0.8 nM
CC(C)CN(C[C@@H](O)[C@H](Cc1ccccc1)NC(=O)O[C@H]1CCOC1)S(=O)(=O)c1cncc([N+](=O)[O-])c1 [Compound 169] | 7.1 nM | 22 nM
CC(C)CN(C[C@@H](O)[C@H](Cc1ccccc1)NC(=O)O[C@H]1CCOC1)S(=O)(=O)c1cncc(N)c1 [Compound 170] | 2.4 nM | 0.74 nM
CC(C)CN(C[C@@H](O)[C@H](Cc1ccccc1)NC(=O)O[C@H]1C[C@H]2CCO[C@H]2C1)S(=O)(=O)c1cncc([N+](=O)[O-])c1 [Compound 171] | 14 nM | 4.3 nM
CC(C)CN(C[C@@H](O)[C@H](Cc1ccccc1)NC(=O)O[C@H]1C[C@H]2CCO[C@H]2C1)S(=O)(=O)c1cncc(N)c1 [Compound 172] | 5.1 nM | 1.6 nM
CC(C)CN(C[C@@H](O)[C@H](Cc1ccccc1)NC(=O)OC1CC2CCO[C@@H]2C1)S(=O)(=O)c1ccc(F)c(N)c1 (stereo partly shown) [Compound 179] | 6.4 nM | 2 nM
CN(C)CCN(C[C@@H](O)[C@H](Cc1ccccc1)NC(=O)OC1CC2CCO[C@@H]2C1)S(=O)(=O)c1ccc(F)c(N)c1 (stereo partly shown) [Compound 180] | 1500 nM | 472 nM
CC(C)CN(C[C@@H](O)[C@H](Cc1ccccc1)NC(=O)O[C@H]1CCOC1)S(=O)(=O)c1ccc(F)c([N+](=O)[O-])c1 [Compound 181] | 145 nM | 45 nM
CC(C)CN(C[C@@H](O)[C@H](Cc1ccccc1)NC(=O)O[C@H]1CCOC1)S(=O)(=O)c1ccc(F)c(N)c1 [Compound 182] | 4.6 nM | 1.4 nM
Cc1c(O)cccc1C(=O)N[C@@H](Cc1ccccc1)[C@H](O)CN(CC(C)C)S(=O)(=O)c1ccc(F)c(N)c1 [Compound 183] | 179 nM | 56 nM
CC(C)CN(C[C@@H](O)[C@H](Cc1ccccc1)NC(=O)O[C@@H]1CC2CCO[C@@H]2C1)NS(=O)(=O)c1ccc(F)c([N+](=O)[O-])c1 (stereo partly shown) [Compound 184] | 1200 nM | 351 nM
COc1ccc(S(=O)(=O)NN(CC(C)C)C[C@@H](O)[C@H](Cc2ccccc2)NC(=O)O[C@H]2CO[C@H]3OCCC32)cc1 (stereo partly shown) [Compound 185] | 312 nM | 97 nM
COc1ccc(S(=O)(=O)NN(CC(C)C)C[C@@H](O)[C@H](Cc2ccccc2)NC(=O)O[C@@H]2CC3CCO[C@@H]3C2)cc1 (stereo partly shown) [Compound 186] | 10 nM | 3.2 nM
COc1ccc(S(=O)(=O)N(C[C@@H](O)[C@H](Cc2ccccc2)NC(=O)OC(C)(C)C)NC(=O)OC(C)(C)C)cc1 [Compound 187] | 534 nM | 166 nM
COc1ccc(S(=O)(=O)N(C[C@@H](O)[C@H](Cc2ccccc2)NC(=O)O[C@H]2CO[C@H]3OCCC32)NC(=O)OC(C)(C)C)cc1 (stereo partly shown) [Compound 188] | 3.9 nM | 1.2 nM
COc1ccc(S(=O)(=O)N(N)C[C@@H](O)[C@H](Cc2ccccc2)NC(=O)O[C@H]2CO[C@H]3OCCC32)cc1 (stereo partly shown) [Compound 189] | 55 nM | 17 nM
CC(C)(C)OC(=O)NN(C[C@@H](O)[C@H](Cc1ccccc1)NC(=O)O[C@H]1CO[C@H]2OCCC21)S(=O)(=O)c1ccc(F)c(N)c1 (stereo partly shown) [Compound 190] | 3.5 nM | 1.1 nM
CC(C)(C)OC(=O)NN(C[C@@H](O)[C@H](Cc1ccccc1)NC(=O)O[C@@H]1CC2CCO[C@@H]2C1)S(=O)(=O)c1ccc(F)c(N)c1 (stereo partly shown) [Compound 191] | 9.6 nM | 3 nM
